# According to ChEMBL document CHEMBL4627384, “l-Thyroxin and the Nonclassical Thyroid Hormone TETRAC Are Potent Activators of PPARγ” (J Med Chem, 2020):
# Calls of active or inactive are those of the source. The calls are words filed in the database; no cut-off is given here.
# Tests used:
# [1] = Cmax in RjOrl:Swiss CD-1 mouse at 10 mg/kg, po administered as single dose measured after 1 to 24 hrs by LC-MS analysis; type: ADME, organism-based; set-up: dose 10 mg/kg, route oral; details: in vivo
# [2] = Tmax in RjOrl:Swiss CD-1 mouse at 10 mg/kg, po administered as single dose measured after 1 to 24 hrs by LC-MS analysis; type: ADME, organism-based; details: in vivo
# [3] = Half life in RjOrl:Swiss CD-1 mouse at 10 mg/kg, po administered as single dose measured after 1 to 24 hrs by LC-MS analysis; type: ADME, organism-based; details: in vivo
# [4] = Plasma concentration in RjOrl:Swiss CD-1 mouse at 10 mg/kg, po administered as single dose measured after 4 to 24 hrs by LC-MS analysis; type: ADME, organism-based; details: in vivo
# [5] = Toxicity in RjOrl:Swiss CD-1 mouse assessed as induction of adverse effect at 10 mg/kg, po administered as single dose; type: organism-based; details: in vivo
# [6] = target: T1, Peroxisome proliferator-activated receptor gamma (Homo sapiens, UniProt P37231); experiment: Agonist activity at recombinant human pFA-CMV fused PPARgamma expressed in HEK293T cells transfected with pFR-luciferase plasmid and pRL-SV40 plasmid incubated for 14 to 16 hrs by dual glo luciferase reporter gene assay; type: cell-based, HEK-293T
# T1 sequence (P37231 whole entry): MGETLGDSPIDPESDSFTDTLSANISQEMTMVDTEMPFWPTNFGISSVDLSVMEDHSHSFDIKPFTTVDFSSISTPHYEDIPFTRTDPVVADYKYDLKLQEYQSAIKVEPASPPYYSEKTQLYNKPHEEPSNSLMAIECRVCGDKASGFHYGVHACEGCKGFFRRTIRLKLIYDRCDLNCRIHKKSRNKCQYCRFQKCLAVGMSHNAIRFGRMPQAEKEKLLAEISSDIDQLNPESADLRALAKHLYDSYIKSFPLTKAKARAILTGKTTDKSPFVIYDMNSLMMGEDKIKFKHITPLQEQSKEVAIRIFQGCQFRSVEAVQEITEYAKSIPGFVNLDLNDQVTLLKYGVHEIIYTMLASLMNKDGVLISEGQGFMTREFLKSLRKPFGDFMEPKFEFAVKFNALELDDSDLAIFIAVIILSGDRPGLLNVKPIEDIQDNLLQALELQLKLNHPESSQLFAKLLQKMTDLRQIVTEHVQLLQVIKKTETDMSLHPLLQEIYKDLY
# [7] = target: T1, Peroxisome proliferator-activated receptor gamma; experiment: Binding affinity to recombinant PPARgamma LBD (unknown origin) by isothermal titration calorimetry
# [8] = target: T2, Retinoic acid receptor RXR-alpha (Homo sapiens, UniProt P19793); experiment: Agonist activity at recombinant human pFA-CMV fused RXRalpha LBD expressed in HEK293T cells transfected with pFR-luciferase plasmid and pRL-SV40 plasmid incubated for 14 to 16 hrs by dual glo luciferase reporter gene assay; type: cell-based, HEK-293T; details: hek-293t
# T2 sequence (P19793 whole entry): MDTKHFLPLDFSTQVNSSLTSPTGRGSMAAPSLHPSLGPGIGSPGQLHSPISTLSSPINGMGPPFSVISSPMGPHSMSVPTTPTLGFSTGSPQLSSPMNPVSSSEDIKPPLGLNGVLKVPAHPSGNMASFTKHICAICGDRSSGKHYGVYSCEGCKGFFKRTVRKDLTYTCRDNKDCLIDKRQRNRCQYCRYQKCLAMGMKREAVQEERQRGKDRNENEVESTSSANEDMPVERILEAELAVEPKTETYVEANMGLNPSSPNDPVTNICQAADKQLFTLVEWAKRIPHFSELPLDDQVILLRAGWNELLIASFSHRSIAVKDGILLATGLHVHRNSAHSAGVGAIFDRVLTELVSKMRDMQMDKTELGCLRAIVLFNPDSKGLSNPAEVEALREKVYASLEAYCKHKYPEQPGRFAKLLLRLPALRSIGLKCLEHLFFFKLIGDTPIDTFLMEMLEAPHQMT
# [9] = Drug level in human serum; type: ADME, cell-free; details: read-out: Drug uptake
# [10] = tested on: HEK-293T; experiment: Activation of renilla luciferase expressed in HEK293T cells at 3 uM incubated for 14 to 16 hrs by reporter gene assay; type: cell-based; details: Renilla reniformis
# [11] = Drug level in euthyroid human serum by RIA; type: ADME, cell-free; details: read-out: Drug uptake
Cmax [1],Tmax [2],half-life [3],concentration [4],concentration [11],SMILES,Activity [5],EC50 [6],Kd [7],EC50 [8],concentration [9],Activity [10]
3180 ng/mL,1 h,19.4 h,40 nM,,O=C(O)Cc1cc(Br)c(Oc2cc(I)c(O)c(I)c2)c(I)c1,Non-Toxic,,,,,
4480 ng/mL,2 h,8.7 h,40 nM,,N[C@@H](Cc1cc(Br)c(Oc2cc(I)c(O)c(I)c2)c(I)c1)C(=O)O,Non-Toxic,12.9 µM,,,,
,,,,,N[C@@H](Cc1cc(I)c(Oc2ccc(O)c(I)c2)c(I)c1)C(=O)O [LIOTHYRONINE],,5.8 µM,0.71 µM,Not Active,1.3 to 2.1 nM,
,,,,,N[C@@H](Cc1ccc(Oc2cc(I)c(O)c(I)c2)c(I)c1)C(=O)O [REVERSE TRIIODOTHYRONINE],,3.8 µM,0.63 µM,Not Active,,
,,,,0.24 nM,O=C(O)Cc1cc(I)c(Oc2ccc(O)c(I)c2)c(I)c1 [TIRATRICOL],,,,,,inactive
